The results in this text go back to patent US20260365698A1, “STAPLED PEPTIDES FOR SENSITIZATION OF CANCER TO TREATMENT” (Purdue Research Foundation, priority 2022, published 2026).

Bridge positions count the residues as written; N and C are the ends. Square brackets hold non-standard residues; d marks the D form. Peptide text beside a SMILES is read from it. S5 = C=CCCC[C@](C)(N)C(=O)O

One data set concerns A549 cells. The data set can be described thus: Confocal microscopy of FITC-labeled peptides, cell permeability. The data set is classed as cell-based. How it is done:
To determine whether this was a result of poor cell permeability by compounds N2S and N3S, fluorophore labeled versions of these peptides were generated, and confocal microscopy was used to determine the abilities of these peptides to enter cells (FIG. 5C).
Briefly, A549 cells at 9.5×10^4 cells/ml in 600 μl media were plated on 10 mm glass-bottomed, 24-well plates (Chemglass Life Sciences Cell Culture Plate, 24-Well, Fisher Scientific, Waltham, MA) and cultured for overnight at 37 °C, 5% CO2, in complete growth medium (RPMI supplemented with 10% fetal calf serum, L-glutamine, and non-essential amino acids). The next day, cells were treated with fresh, pre-warmed complete growth medium supplemented with the desired FITC-labeled peptide or DMSO vehicle control at a final concentration of 100 μM FITC labeled peptide and 1% DMSO. After 90 minutes of treatment, cells were washed three times in warm PBS to remove excess peptide from the cell surface and left in modified Krebs-Ringer buffer solution [KRBH: 134 mM NaCl. 3.5 mM KCl. 1.2 mM KH2PO4, 0.5 mM MgSO4, 1.5 mM CaCl2), 5 mM NaHCO3, 10 mM HEPES (pH 7.4)] containing Hoechst stain at 1 μg/ml. Cells were immediately analyzed under a Nikon A1 confocal microscope (Resonant). The images were taken at 20× magnification with fluorescence excitation wavelengths at 409 for the Hoechst and 488 for the FITC. Images were processed using NIS-Elements AR. Dietrich et al., Cell permeable stapled peptide inhibitor of Wnt signaling that targets 0-catenin protein-protein interactions, Cell Chemical Biology 24(8): 958-968.e5 (2017); Dougherty et al., Enhancing the cell-permeability of stapled peptides with a cyclic cell-penetrating peptide, J Medicinal Chemistry 62(22): 10098 (2019).

The target of the next data set is T1, MafG (Homo sapiens, UniProt O15525).
T1 construct: made in house; host or cells: E. coli Rosetta (DE3), vector pET15B, Ni-NTA purified
The data set can be described thus: Immunoprecipitation (biotinylated pull-down) assay. The data set is classed as binding. To be noted: 20-fold unlabeled N1S. How it is done:
To show direct interaction between compound NIS and MafG, an immunoprecipitation assay was carried out with His-tagged, purified MafG and biotin-labeled compound NTS peptide. Briefly, a Pierce™ Biotinylated Protein Interaction Pull-Down Kit was purchased from Thermo Fisher, and manufacturer's instructions were followed. Purified His-tagged MafG and biotin-tagged NIS were used as […] proteins. For competition experiments, 20× unlabeled NIS was added after 1 hour incubation with MafG.

T1 sequence (O15525 whole entry): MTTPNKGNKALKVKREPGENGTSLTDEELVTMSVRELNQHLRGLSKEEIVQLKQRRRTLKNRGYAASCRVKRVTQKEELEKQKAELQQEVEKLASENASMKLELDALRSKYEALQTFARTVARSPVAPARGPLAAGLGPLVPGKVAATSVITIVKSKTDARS

Consider `CC[C@H](C)[C@H](NC(C)=O)C(=O)N[C@H](C(=O)N[C@@H](CCC(=O)O)C(=O)N[C@@H](CC(C)C)C(=O)N[C@@H](CCC(=O)O)C(=O)N[C@@]1(C)CCCC=CCCC[C@@](C)(C(=O)N[C@@H](CC(C)C)C(=O)N[C@@H](CCCCN)C(=O)N[C@@H](CC(=O)O)C(=O)N[C@@H](CCC(=O)O)C(=O)N[C@@H](CCCCN)C(=O)N[C@@H](CCC(=O)O)C(N)=O)NC(=O)[C@H](CC(=O)O)NC(=O)[C@H](CC(C)C)NC(=O)[C@H](CC(=O)O)NC1=O)C(C)C` [N1S] (Ac-IVELE[S5]DLD[S5]LKDEKE-NH2; staple 6-10), for which the “cellular and nuclear permeability” value in the data set with A549 cells (FITC-labeled peptide, 100 μM, 90 minutes, A549 cells) is “good”. The entry into cells result in the data set on A549 cells (summary statement) was “can enter cells”. On MafG, the “competition of N1S-biotin/MafG interaction by unlabeled peptide” value is listed as “could be competed away”.
